Measurements published in article PMC6269734, “Synthesis and Pharmacological Activities of Some New Triazolo- and Tetrazolopyrimidine Derivatives” (Molecules, 2013).
Like-named read-outs stand apart in the source and are kept apart here.

Key:
[1] = tested on: Gastric Ulceration in mice; test: Ulcerogenic activity (gastric ulceration in mice); type: in vivo; conditions: oral, 6 h; for mean ulcer lesions ± SEM: n = 6
Description: (§1) Female albino mice (16–18 g) and Sprague Dawley […] (100 g) obtained from the Theodor Bilharz Research Institute (TBRI, Giza city, Egypt) were used. Approval of the institutional animal ethical committee for the animal studies was obtained from the Office of Environmental Health and Radiation Safety, ACUC Protocol 1096-5. The animals were maintained according to accepted standards of animal care.
Seventy-two mice were divided into twelve groups. Ulcerogenic activity was evaluated after oral administration of the tested compounds or indomethacin at doses of 10, 50, and 100 mg/kg. Control mice received 0.5% CMC. Food but not water was removed 24 h before administration of the tested compounds. After 6 h, the mice were sacrificed; the stomach was removed and opened along the greater curvature, washed with distilled water and cleaned gently by dipping in saline. The mucosa damage for each stomach was examined using a stereoscopic microscope and compared with the reference drug indomethacin according to the reported procedure.

[2] = tested on: carrageenan induced edema; test: Anti-inflammatory activity, carrageenan induced edema (paw volume, plethysmometer); type: in vivo, mice; conditions: for inhibition in vivo at 5 mg/kg: Mus musculus, po, dose 5 mg/kg b.m (p.o.), n = 6, read-out: Edema inhibition (Means ± E.M); for anti-inflammatory activity (in words): grading in the structure activity discussion
Description: as §1
Newly synthesized thienopyrimidine derivatives were dissolved in 0.5% carboxymethyl cellulose (CMC) as a homogeneous solution and administered […]. One hundred and eight […] were divided into eighteen groups, each group consisting of six animals. Anti-inflammatory activity of the compounds was studied in mice using carrageenan induced edema. A suspension of the tested compound and the reference drug, indomethacin in aqueous solution was administered orally at a dose 5 mg/kg. Control animals were treated with 0.5% CMC only. After 30 min, 0.1 mL of freshly prepared 1.0% carrageenan solution (in formol saline) was injected into the sub-plantar region of the right hind paw according to Hernandez-Perez. The right paw volume was measured using a digital plethysmometer (Model 7150, Ugo Basile, Varese, Italy), directly before and after 1, 2, 3 h, intervals after administration of the tested compounds.

[3] = Acute toxicity (LD50); conditions: mouse, in vivo, ip; male adult mice, i.p., mortality after 24 h, graphical method
Description: To determine the acute toxicity of the compounds, the LD50 values for compounds 2, 3, 6, 9 and 10 were determined by injecting different gradual increased doses of the tested compounds into male adult mice, then calculating the dose corresponding to 50% animal death (Table 3).
Groups of male adult mice, each of six animals, were injected i.p. with graded doses of each of the test compounds. The percentage of mortality in each group of animals was determined 24 h, after injection. Computation of LD50 was processed by a graphical method.

| Structure (SMILES) | number of mice lesions bigger than 0.5 mm in length per total no. of mice ([1]; dose 10 mg/kg) | mean ulcer lesions ± SEM ([1]; dose 10 mg/kg) | number of mice lesions bigger than 0.5 mm in length per total no. of mice ([1]; dose 50 mg/kg) | mean ulcer lesions ± SEM ([1]; dose 50 mg/kg) | number of mice lesions bigger than 0.5 mm in length per total no. of mice ([1]; dose 100 mg/kg) | mean ulcer lesions ± SEM ([1]; dose 100 mg/kg) | inhibition in vivo at 5 mg/kg ([2]; 1 h) | inhibition in vivo at 5 mg/kg ([2]; 2 h) | inhibition in vivo at 5 mg/kg ([2]; 3 h) | anti-inflammatory activity (in words) [2] | LD50 at 24 h [3] |
| --- | --- | --- | --- | --- | --- | --- | --- | --- | --- | --- | --- |
| COc1ccc(-c2nc3sc4c(c3c3nnc(C)n23)CCCCCC4)cc1 [Compound 10, 5-(4-Methoxyphenyl)-3-methyl-2H-cycloocteno[4,5]thieno[2,3-d][1,2,4]triazolo-[4,5-a] pyrimidine] | 0/6 | 0 mm | 0/6 | 0 mm | 0/6 | 0 mm | 39.1 ± 1.5% | 48.4 ± 1.2% | 55.6 ± 1.1% | high | 2341 ± 11 mg/kg |
| COc1ccc(-c2nc3sc4c(c3c3nnc(CC#N)n23)CCCCCC4)cc1 [Compound 3, 5-(4-Methoxyphenyl)-3-cyanomethylcycloocteno[4.5]thieno[2.3-d]triazolo[1,2,4]-[4,5-a]pyrimidine] | – | – | – | – | – | – | 37.2 ± 1.3% | 46.3 ± 1.5% | 54.4 ± 1.1% | high | 2131 ± 13 mg/kg |
| COc1ccc(-c2nc3sc4c(c3c3nnc(-c5ccccc5)n23)CCCCCC4)cc1 [Compound 14, 5-(4-Methoxyphenyl)-4-phenylcycloocteno[4,5]thieno[2,3-d][1,2,4]triazolo[4,5-c]pyrimidine] | – | – | – | – | – | – | 7.3 ± 1.1% | – | 11.2 ± 1.5% | weak | – |
| COc1ccc(-c2nc3sc4c(c3c3n[nH]c(=O)c(=O)n23)CCCCCC4)cc1 [Compound 7, 6-(4-Methoxyphenyl)-3,4-dioxo-2H-cycloocteno[4.5]thieno[2,3-d]triazino[1,2.4]-[3,4-a]pyrimidine] | – | – | – | – | – | – | 20.8 ± 1.4% | 22.3 ± 1.3% | 25.1 ± 1.4% | moderate | – |
| COc1ccc(-c2nc3sc4c(c3c3nc5ccccc5c(=O)n23)CCCCCC4)cc1 [Compound 5, 8-(4-Methoxyphenyl)-6-oxo-cycloocteno[4.5]thino[2,3-d]pyrimidino[4.3-b]quinazoline] | – | – | – | – | – | – | 11.7 ± 1.1% | 13.2 ± 1.2% | 15.2 ± 1.5% | weak | – |
| COc1ccc(-c2nc(NN)c3c4c(sc3n2)CCCCCC4)cc1 [Compound 2, 2-(4-Methoxyphenyl)-4-hydrazinocycloocteno[4.5]thieno[2.3-d]pyrimidine] | 0/6 | 0 mm | 0/6 | 0 mm | 0/6 | 0 mm | 42.3 ± 1.1% | 49.3 ± 1.1% | 57.1 ± 1.4% | high | 2514 ± 12 mg/kg |
| COc1ccc(-c2nc3sc4c(c3c3nnc(Nc5ccccc5)n23)CCCCCC4)cc1 [Compound 12] | – | – | – | – | – | – | 19.4 ± 1.6% | 21.3 ± 1.3% | 23.3 ± 1.2% | moderate | – |
| COc1ccc(-c2nc3sc4c(c3c3n[nH]c(=O)n23)CCCCCC4)cc1 [Compound 9, 5-(4-Methoxy)phenyl-3-oxo-2H-cycloocteno[4,5]thieno[2,3-d][1,2,4]triazolo[4,5-a]pyrimidine] | – | – | – | – | – | – | 31.2 ± 1.2% | 35.1 ± 1.5% | 40.2 ± 1.6% | high | 1832 ± 12 mg/kg |
| COc1ccc(C2=Nc3sc4c(c3C3=NCC(=O)N23)CCCCCC4)cc1 [Compound 4] | – | – | – | – | – | – | 16.5 ± 1.3% | 17.2 ± 1.1% | 19.3 ± 1.2% | weak | – |
| COc1ccc2c(c1)c(CC(=O)O)c(C)n2C(=O)c1ccc(Cl)cc1 [Indomethacin, reference compound] | 3/6 | 1.4 ± 0.2 mm | 5/6 | 1.9 ± 0.2 mm | 6/6 | 2.1 ± 0.2 mm | 44.7 ± 1.2% | 52.4 ± 1.2% | 61.2 ± 1.3% | – | 1817 ± 15 mg/kg |
| COc1ccc(C2=Nc3sc4c(c3C3=NNC(=O)CN23)CCCCCC4)cc1 [Compound 8, 6-(4-Methoxyphenyl)-3-oxo-2,4-dihydrocycloocteno[4,5]thieno[2,3-d]triazino-[1,2,4][3,4-a]pyrimidine] | – | – | – | – | – | – | 21.3 ± 1.2% | 24.6 ± 1.1% | 26.5 ± 1.2% | moderate | – |
| COc1ccc(-c2nc3sc4c(c3c3nnnn23)CCCCCC4)cc1 [Compound 6, 5-(4-Methoxyphenyl)-cycloocteno[4.5]thieno[2.3-d]tetrazolo[4.5-e]pyrimidine] | – | – | – | – | – | – | 34.5 ± 1.2% | 42.1 ± 1.3% | 48.2 ± 1.2% | high | 2047 ± 12 mg/kg |
